From article PMC9325861, “Mouse precision-cut liver slices as an ex vivo model to study drug-induced cholestasis” (Archives of Toxicology, 2022)
“And” between values parts separate entries of the source, which are not always exact repeats. Identical values can stand only once.

Key:
mouse PCLS = test: LC–MS/MS quantification of intracellular BAs in mouse PCLS; format: cell-based; conditions: 48 h
Procedure: In short, freshly prepared PCLS were transferred to 12-well plates (Greiner bio-one GmbH, Austria), one slice per well. […] The composition of the human-like BA mixture was based on serum concentrations in mice and humans, measured by […]. […] A Shimadzu Nexera X2 HPLC system with binary pumps was interfaced to a Thermo Scientific TSQ Quantum ultra-triple quadrupole mass spectrometer. The BA analysis was performed by liquid chromatography-tandem mass spectrometry (LC-MS/MS). Xcalibur software version 2.0.7 by Thermo Scientific was applied in the data processing. […] Phenomenex, Utrecht, the Netherlands) reversed-phase column was used to separate the BAs. The column and autosampler temperatures were set at 55 °C and 4 °C, respectively. The injection volume was 15 μL, and the flow was set at 0.3 mL/min. […] Intracellular BA concentrations in PCLS were measured by LC-MS/MS. Sample preparation for these measurements of intracellular BAs was performed as follows. […] Hereafter, three slices for each condition were pooled in a 1.5-mL test tube, snap-frozen in liquid nitrogen and stored at -80 °C until analysis. […] Samples were subsequently centrifuged for 15 min at 15 °C and 13,000 rpm. The supernatant was collected in a new tube, and the samples were concentrated using a Concentrator plus centrifuge (Eppendorf, Germany). […] The concentrations of CA, CDCA, DCA, LCA, UDCA, HDCA, […] and GCA were determined with MRM-based LC-MS as described above.

MRP2 = system: MRP2; parameters: method as in Pedersen et al. [2008]; Morgan et al. [2013]; conditions: ref Pedersen et al. [2008]; Morgan et al. [2013]; cited from earlier work
mouse Bsep protein = system: mouse Bsep protein; parameters: method as in Noe et al. [2001]; conditions: ref Noe et al. [2001]; cited from earlier work
[1] = system: primary human hepatocytes; parameters: method as in Ogimura et al. [2017]; conditions: in the presence of a BA mixture, ref Ogimura et al. [2017], read-out: Concentration with 50% toxicity; cited from earlier work
[2] = system: Collagen type 1a1 (Col1a1); test: qRT-PCR gene expression in mouse PCLS: Col1a1; format: cell-based; conditions: 48 h, both with and without BAs present
Procedure: (§1) In short, freshly prepared PCLS were transferred to 12-well plates (Greiner bio-one GmbH, Austria), one slice per well. Each well was filled with 1.3 mL pre-heated (37 ℃) and oxygenated (80%) Williams Medium E (1X, glutaMAX-1), which had been supplemented with 25 mM D-glucose monohydrate and 50 μg/ml Gentamicin (denoted as WME GG). […] The DMSO concentration used was below 0.5% in the incubation medium, equivalent to DMSO concentrations in solutions prepared by dilution of BA stock solutions with WME GG.
(§2) Three PCLS incubated under a given condition were pooled in a 1.5-mL Rnase-free test tube, snap-frozen in liquid nitrogen, and stored at – 80 °C until analysis. RNA was isolated using a FavorPrep Tissue Total RNA Mini Kit (Favorgen, Vienna, Austria). Subsequently, the RNA yield was quantified using a NanoDrop One instrument (Thermo Fisher Scientific, Massachusetts, USA). Isolated RNA was reverse-transcribed to cDNA using a cDNA synthesis kit (Reverse Transcription System, Promega, Benelux B.V.). The cDNA samples were subsequently loaded in the thermal cycler with a program set to 22 °C for 10 min, 42 °C for 15 min, and 95 °C for 5 min.
(§3) qRT-PCR was used to determine the relative mRNA expression levels for the mouse target genes: Bsep (Abcb11), Mrp2 (Abcc2), Mrp3 (Abcc3), Mrp4 (Abcc4), Ntcp (Slc10a1), Fxr (Nr1h4), Cyp7a1 (Cyp7a1), Collagen type 1a1 (Col1a1), Hsp47 (Serpinh1). Primer sequences of the genes tested are given in Supplementary Table S1. QRT-PCR was performed using, the dye, FastStart Universal SYBR Green Master Mix (Roche Diagnostics Netherlands B.V., Almere, the Netherlands) with the ViiA™ 7 Real-Time PCR System (Applied Biosystems, Bleiswijk, the Netherlands). The first cycle constituted 10 min at 95 °C, followed by 40 cycles of 15 s at 95 °C, 30 s at 60 °C and 30 s at 72 °C, followed by 1 cycle dissociation stage (15 s: 95 °C, 60 °C and 95 °C). A minimum of four mouse livers was used for each experiment, using three PCLS per condition. Samples were measured in duplicates. […] Results are expressed as log2(fold change).

Ntcp (Slc10a1) = test: qRT-PCR gene expression in mouse PCLS: Ntcp; format: cell-based; conditions: 48 h
Procedure: as §1, §2, §3

rat PCLS = system: rat PCLS; parameters: method as in Starokozhko et al. [2017a]; conditions: in the presence of BAs, ref Starokozhko et al. [2017a]; cited from earlier work
[3] = with humanized BA mixture, CPZ 15 µM, CSA 1 µM, GB 25 µM
[4] = with humanized BA mixture, CPZ 30 µM, CSA 6 µM, GB 65 µM
[5] = without BA mixture, CPZ 15 µM, CSA 1 µM, GB 25 µM
[6] = without BA mixture, CPZ 30 µM, CSA 6 µM, GB 65 µM

COc1ccc(Cl)cc1C(=O)NCCc1ccc(S(=O)(=O)NC(=O)NC2CCCCC2)cc1 [GB, Glibenclamide]
Effect on total intracellular BA concentration (mouse PCLS; in the absence of the BA mixture): decrease in intracellular concentrations of BAs
Intracellular CA concentration (mouse PCLS; [3]): 103.6±10.3 pmol/mg protein
Intracellular CDCA concentration (mouse PCLS; [3]): 14.7±1.6 pmol/mg protein
Intracellular DCA concentration (mouse PCLS; [3]): 50.7±7.4 pmol/mg protein
Intracellular GCA concentration (mouse PCLS; [3]): 13.4±2.4 pmol/mg protein
Intracellular HDCA concentration (mouse PCLS; [3]): 9.4±2.7 pmol/mg protein
Intracellular LCA concentration (mouse PCLS; [3]): 0.8±0.5 pmol/mg protein
Intracellular TCA concentration (mouse PCLS; [3]): 103.8±8.6 pmol/mg protein
Intracellular TCDCA concentration (mouse PCLS; [3]): 7.7±0.5 pmol/mg protein
Intracellular TDCA concentration (mouse PCLS; [3]): 7.6±0.8 pmol/mg protein
Intracellular THDCA concentration (mouse PCLS; [3]): 8.3±1.4 pmol/mg protein
Intracellular UDCA concentration (mouse PCLS; [3]): 19.1±1.7 pmol/mg protein
Total intracellular concentration of 11 BAs (mouse PCLS; [3]): 339.2±20.7 pmol/mg protein
Intracellular CA concentration (mouse PCLS; [4]): 132.3±11.3 pmol/mg protein
Intracellular CDCA concentration (mouse PCLS; [4]): 14.8±1.3 pmol/mg protein
Intracellular DCA concentration (mouse PCLS; [4]): 121.3±8.6 pmol/mg protein
Intracellular GCA concentration (mouse PCLS; [4]): 22.4 pmol/mg protein and 22.4±6.1 pmol/mg protein
Intracellular HDCA concentration (mouse PCLS; [4]): 25.7±1.5 pmol/mg protein
Intracellular LCA concentration (mouse PCLS; [4]): 0.9±0.3 pmol/mg protein
Intracellular TCA concentration (mouse PCLS; [4]): 135.2±19.9 pmol/mg protein
Intracellular TCDCA concentration (mouse PCLS; [4]): 8.6±1.2 pmol/mg protein
Intracellular TDCA concentration (mouse PCLS; [4]): 14.6±0.9 pmol/mg protein
Intracellular THDCA concentration (mouse PCLS; [4]): 11.4±2.6 pmol/mg protein
Intracellular UDCA concentration (mouse PCLS; [4]): 24.5±3.9 pmol/mg protein
Effect on total intracellular BA concentration (mouse PCLS; with humanized BA mixture, vs control): reduced or did not affect
Intracellular CA concentration (mouse PCLS; [5]): 0.5±0.0 pmol/mg protein
Intracellular CDCA concentration (mouse PCLS; [5]): 0.2±0.1 pmol/mg protein
Intracellular DCA concentration (mouse PCLS; [5]): 0.6±0.5 pmol/mg protein
Intracellular GCA concentration (mouse PCLS; [5]): 0.0±0.0 pmol/mg protein
Intracellular HDCA concentration (mouse PCLS; [5]): 0.0±0.0 pmol/mg protein
Intracellular LCA concentration (mouse PCLS; [5]): 0.1±0.1 pmol/mg protein
Intracellular TCA concentration (mouse PCLS; [5]): 0.7±0.2 pmol/mg protein
Intracellular TCDCA concentration (mouse PCLS; [5]): 2.3±0.5 pmol/mg protein
Intracellular TDCA concentration (mouse PCLS; [5]): 0.0±0.0 pmol/mg protein
Intracellular THDCA concentration (mouse PCLS; [5]): 1.8±0.3 pmol/mg protein
Intracellular UDCA concentration (mouse PCLS; [5]): 0.0±0.0 pmol/mg protein
Total intracellular concentration of 11 BAs (mouse PCLS; [5]): 6.3±0.0 pmol/mg protein
Intracellular CA concentration (mouse PCLS; [6]): 0.5±0.2 pmol/mg protein
Intracellular CDCA concentration (mouse PCLS; [6]): 0.4±0.3 pmol/mg protein
Intracellular DCA concentration (mouse PCLS; [6]): 0.1±0.1 pmol/mg protein
Intracellular GCA concentration (mouse PCLS; [6]): 0.0±0.0 pmol/mg protein
Intracellular HDCA concentration (mouse PCLS; [6]): 0.0±0.0 pmol/mg protein
Intracellular LCA concentration (mouse PCLS; [6]): 0.2±0.1 pmol/mg protein
Intracellular TCA concentration (mouse PCLS; [6]): 0.3±0.1 pmol/mg protein
Intracellular TCDCA concentration (mouse PCLS; [6]): 2.0±0.4 pmol/mg protein
Intracellular TDCA concentration (mouse PCLS; [6]): 0.0±0.0 pmol/mg protein
Intracellular THDCA concentration (mouse PCLS; [6]): 0.5±0.1 pmol/mg protein
Intracellular UDCA concentration (mouse PCLS; [6]): 0.0±0.0 pmol/mg protein
Total intracellular concentration of 11 BAs (mouse PCLS; [6]): 4.2±0.0 pmol/mg protein
Effect on MRP2 activity on a protein level (MRP2): stimulate MRP2 activity
Inhibition of the mouse Bsep protein (mouse Bsep protein): competitively inhibit
IC50 [1]: 103 µM
Col1a1 gene expression [2]: reduced Col1a1 expression in a concentration-dependent manner
Ntcp gene expression (Ntcp (Slc10a1); BAs present, highest concentration of CPZ, lowest concentration of GB): increase the expression of Ntcp significantly
Ntcp gene expression (Ntcp (Slc10a1); in the absence of BAs): decrease the Ntcp expression
Concentration reaching severe toxicity (rat PCLS): 180 µM
